Values quoted from earlier work as cited in patent US9682037B2, “Non-mucoadhesive film dosage forms” (APR APPLIED PHARMA RESEARCH S.A., priority 2006, dated 2017).
Counter-ions that a name gives are not always drawn. Like-named read-outs stand apart in the source and are kept apart here.

Tests used:
[1] = oral
[2] = oral 5 mg once daily for 10 days, normal healthy volunteers

For `Cc1nc2n(c(=O)c1CCN1CCC(c3noc4cc(F)ccc34)CC1)CCCC2` [Risperidone], the “Absolute Bioavailability” value (in vivo) is listed as “Absolute Bioavailability = ca. 70% (CV = 25%)” and the Tmax (in vivo) is listed as “Tmax = 1.0 hour hours”.
In the case of `Cc1nccn1CC1CCc2c(c3ccccc3n2C)C1=O` (racemic) [Ondansetron Base, (±) 1,2,3,9 tetrahydro-9-methyl-3-[(2-methyl-1H-imidazol-1-yl)methyl]-4H-carbazol-4-one], the Bioavailability (8 mg tablet) is listed as “(56% for 8 mg tablet)”, the “Bioavailability in Healthy Subjects” value (healthy subjects) is listed as “Bioavailability in Healthy Subjects = ca. 45-75%” and the Tmax (in vivo) is listed as “Tmax = 1.5-2.5 Hours hours”. The “Effect of food on absorption” value (result in words) was “Bioavailability slightly enhanced by food” and the “Linearity / dose proportionality of pharmacokinetics” value (from here on “Linearity / dose proportionality”) (result in words) was “Plasma concentrations are not dose”.
In the case of `CCN(C)C(=O)Oc1cccc([C@H](C)N(C)C)c1` [Rivastigmine Tartrate], the “Absolute Bioavailability” value (3.0 mg dose) is listed as “Absolute Bioavailability = ca. 36% for 3.0 mg”, the “increase in AUC on doubling dose” value (doubling dose from 3 to 6 mg BID) is listed as “Doubling dose from 3 to 6 mg BID → three fold” and the Tmax (fasted) is listed as “Tmax = 1.0 hours (fasted state)”. The “Linearity / dose proportionality” value (result in words) was “Linear pharmokinetics up to 3 mg BID”, the “Administration with food delays absorption (Tmax) by” value (with food) was 1.5 h and the “Food decreases/lowers Cmax by” value (with food) was about 30%.
For `O=C1Nc2ccc(Cl)cc2C(c2ccccc2Cl)=NC1O` (centres unmarked) [Lorazepam], the Cmax (2 mg) is given as 20 ng/mL, the “Absolute Bioavailability” value (in vivo) is given as “Absolute bioavailability = ca. 90%” and the Tmax (in vivo) is given as “Tmax = ca. 120 minutes”. For the same compound, the “Linearity / dose proportionality” value (result in words) was “dose proportionate”.
For `CNS(=O)(=O)Cc1ccc2[nH]cc(CCN(C)C)c2c1` [Sumatriptan Succinate, 3-[2-(dimethylamino)ethyl]-N-methyl-indole-5-methanesulfonamide], the Cmax (25 mg) is given as 18 ng/mL, the Cmax range (25 mg) is given as 7 to 47 ng/mL and the Cmax (100 mg) is given as 51 ng/mL. The Cmax range (100 mg) was “(range 28-100 ng/ml) (100 mg)”, the “High fat meal: AUC increased by” value (100 mg tablets) was 12% and the “High fat meal: Cmax increased by” value (100 mg tablets) was 15%. The Tmax (during migraine attack) was about 2.5 h, the “Absolute Bioavailability” value (in vivo) was “Absolute bioavailability = ca. 15%” and the “Cmax during a migraine attack versus when migraine free” value (in vivo) was “Cmax is same during a migraine attack and when”. For the same compound, the “Linearity / dose proportionality” value (result in words) was “Single dose → dose proportionality in extent of” and the Tmax (when migraine free) was about 2.0 h.
For `Clc1ccc2c(c1)CCc1cccnc1C2=C1CCNCC1` [Desloratadine, 8-chloro, 6,11-dihydro-11-(4-piperdinylidene)-5H-benzo[5,6]cyclohepta[1,2-b]pyridine], the AUC [2] is given as “AUC = 56.9 ng hr/ml*” and the Tmax [2] is given as “Tmax = 3.0 hours*”.
In the case of `Cc1nnc2n1-c1ccc(Cl)cc1C(c1ccccc1)=NC2` [Alprazolam], the Tmax (in vivo) is listed as “Tmax = 1-2 hours”, the Cmax (over 0.3-3.0 mg dose range) is listed as “Cmax = 8.0-37 ng/ml over 0.3-3.0 mg dose range” and the “Linearity / dose proportionality” value (result in words) is listed as “Plasma levels proportionate to dose given”.
For `CCCc1nc(C)c2c(=O)[nH]c(-c3cc(S(=O)(=O)N4CCN(CC)CC4)ccc3OCC)nn12` [Vardenafil HCl], the Tmax (fasted) is listed as 0.5 to 2 h, the Tmax median (fasted) is listed as 1 h and the Cmax (fasted, 20 mg dose) is listed as 10 to 25 ng/mL. The Cmax median (fasted, 20 mg dose) was about 18 ng/mL, the “Administration with high fat meal lowers Cmax by” value (high fat meal) was “Cmax by ca. 18-50%” and the “Absolute Bioavailability” value (in vivo) was “Absolute bioavailability = ca. 15%”.
In the case of `COc1ccc2c3c1O[C@H]1C[C@@H](O)C=C[C@@]31CCN(C)C2` [Galantamine HBr], the Tmax (fasted) is given as “Tmax = ca. 60 minutes (fasted)”, the “Absolute Bioavailability” value (in vivo) is given as “Absolute bioavailability −= ca. 90%” and the “Administration with food delays absorption (Tmax) by” value (with food) is given as 1.5 h.
For `CNC[C@H](O)c1cccc(O)c1` [phenylephrine], the “absolute bioavailability when ingested orally” value [1] is listed as “approximately 40%” and the “time to peak plasma concentrations” value [1] is listed as 1 to 2 h.
For `Cc1cc2c(s1)Nc1ccccc1N=C2N1CCN(C)CC1` [Olanzapine, 2-methyl-4-(4-methyl-1-piperazinyl)-10H-thieno[2,3-b][1,5]benzodiazepine], the “steady state conc. relative to conc. after single doses” value (administration once daily) is listed as “ca. twice the conc. after single doses”, the “Absolute Bioavailability” value (in vivo) is listed as “Absolute Bioavailability = ca. 60%” and the Tmax (in vivo) is listed as “Tmax = 6.0 hours”. For the same compound, the “Linearity / dose proportionality” value (result in words) was “Linear pharmacokinetics over clinical dosing”.
For `O=C1CN=C(c2ccccc2Cl)c2cc([N+](=O)[O-])ccc2N1` [Clonazepam], the “Absolute Bioavailability” value (in vivo) is given as “Absolute bioavailability = ca. 90%” and the Tmax (in vivo) is given as “Tmax = 1-4 hours”.
For `CCCc1nn(C)c2c(=O)[nH]c(-c3cc(S(=O)(=O)N4CCN(C)CC4)ccc3OCC)nc12` [Sildenafil Citrate], the Tmax (fasted) is given as 0.5 to 2 h, the Cmax (fasted, 100 mg dose) is given as “Cmax = ca. 450 ng/ml.(fasted) (100 mg dose)” and the “Absolute Bioavailability” value (in vivo) is given as “Absolute bioavailability = ca. 40%”.
